Data reported in the NIST ThermoML archive (doi:10.1016/j.jct.2018.09.026).

Assay: mn = molality of the nth substance listed, in mol/kg
Settings: 100 kPa, Liquid; for speed of sound: Frequency=3 MHz, Single path-length method; for mass density: Vibrating tube method

CNCCC=C1c2ccccc2CCc2ccccc21.Cl + O
Settings | mass density, 288.15 K [kg/m3] | mass density, 293.15 K [kg/m3] | mass density, 298.15 K [kg/m3] | mass density, 303.15 K [kg/m3] | mass density, 308.15 K [kg/m3] | speed of sound, 288.15 K [m/s] | speed of sound, 293.15 K [m/s] | speed of sound, 298.15 K [m/s] | speed of sound, 303.15 K [m/s] | speed of sound, 308.15 K [m/s]
m1 = 0.025 | 1000.19 | 999.27 | 998.086 | 996.667 | 995.032 | 1471.8 | 1487.4 | 1501.2 | 1513.2 | 1523.6
m1 = 0.05 | 1001.25 | 1000.3 | 999.096 | 997.655 | 995.999 | 1475.9 | 1491.2 | 1504.8 | 1516.7 | 1526.8
m1 = 0.075 | 1002.26 | 1001.3 | 1000.07 | 998.612 | 996.941 | 1478.3 | 1493.7 | 1507.2 | 1519 | 1529.1
